{FAM} = fluorescein (FAM) label
Assays:
[1] = system: PC-3-Bcl-2 xenograft tumors; settings: mouse, in vivo
Experimental: When the average tumor size was 65 mm^3, animals were randomized and the right flank of the xenograft tumor bearing mice were pre-treated with 5 Gy X-ray prior to administration of fluoresceinated G3139 oligonucleotide intravenously at a low dose of 6 mg/kg, daily for 5 days (top left panel); at a high dose of 10 mg/kg on given intermittently on days 1, 3, and 5 (top middle panel); a single dose of 30 mg/kg on the same day of X-ray pre-treatment (top right panel); and non-treated left flank bearing xenograft tumor (bottom 3 panels). Each mouse received a total dose of 30 mg/kg fluorescent G3139.
On day 8, animals were sacrificed, subcutaneous and organs were resected, and counterstained with DAPI as an internal staining control for nucleus staining. The resected tissues were processed as in Example 1 described above and fluorescence intensity was recorded using a stereomicroscope (Zeiss, 40) and spot camera (Qimaging). The signal intensity was recorded in three areas of each sample and quantified using MCID Elite (Imaging Research) and averaged to yield the reported intensities.

[2] = system: A549 NSCLC xenograft tumors; assay: Tumor growth of NSCLC xenografts under G3139 dosing schedules (Example 4); assay type: in vivo, mice
Experimental: In vivo tumor model: NSCLC xenograft tumors were established in the flank of male athymic nude mice by injecting subcutaneously 5 to 9×10^6 A549 tumor cells. […] Twenty mg/kg injections every other days for 4 weeks (total 14 days) were also carried. At 30 mg/kg and 40 mg/kg, mice were injected every two- or three-day intervals respectively. (FIG. 6). The tumor growth were measured 15 - 55 days post-implantation and the tumor volumes were calculated based on the formula: [(width)^2×length]/2. […] Tumors in mice injected with higher doses but interminttently with 2-3 days intervals also grew slower than mice treated with daily doses at lower doses.

[3] = in vivo, sc; cited from earlier work
[4] = human, in vivo, iv; cited from earlier work

persistence of the oligonucleotide in tumor after administration of radiation and G3139 ([1]; iv, 30 mg/kg) [days] | Substance | staining of tumor cells [1] | tumor growth ([2]; 20 mg/kg IP every other day vs 10 mg/kg daily (total 280 mg/kg), 15-55 days post-implantation) | tumor growth ([2]; higher doses intermittently at 2-3 day intervals vs daily lower doses) | mean plasma half-life for elimination [3] [h] | steady state plasma levels observed after the beginning of infusion [3] [h] | plasma half life [4] | time until plasma concentration becomes undetectable [4] [h]
– | FAM-G3139: fluorescent G3139, F - TCTCCCAGCGTGCGCCAT-3′, phosphorothioate oligonucleotide targeting bcl-2 (all phosphorothioate, 5' {FAM}, sugars by position and methylation of C not given here) | no visible staining | – | – | – | – | – | –
7 | oblimersen [G3139] | – | grew slower | grew slower | 7.46 | 48 | about 60 minutes | ≤ 4
